Experimental data from patent US12319703B2, “Macrocyclic fused pyrazoles as Mcl-1 inhibitors” (ASCENTAGE PHARMA (SUZHOU) CO., LTD., priority 2019, dated 2025).
In brackets after ≈: the same amount, converted by molar mass.

Columns and labels:
Kinetic solubility assay = assay type: physicochemical; conditions: pH 6.5 PBS buffer, HPLC; for solubility: PBS buffer pH 6.5, aqueous buffer, thermodynamic from solid, read-out: Solubility (pH 6.5, μg/mL)
Method: Representative Compounds of the Disclosure were tested in a solubility assay with pH 6.5 PBS buffer. PBS buffer was prepared by dissolving 4.86 g of potassium dihydrogen phosphate and 5.09 g of disodium hydrogen phosphate dodecahydrate in 1 L of ultrapure water to have final pH value of 6.5. In the solubility assay, 0.5 mg of test sample was dissolved in 1 mL of methanol and the stock solution was transferred into 2 mL EP tube, and evaporated at 50° C. for 3 h. To the tube was added 1 mL of PBS buffer and the mixture was stirred and shaken for 1-2 h. The solution was allowed to stand overnight and then filtered before HPLC analysis. Another 1.5 mg of the sample was dissolved in 3 mL of methanol to prepare a calibration curve with a series of concentration range of 5-500 μM. The solubility of each sample was determined by the measured peak area in HPLC.

NCI-H929 cells = assay: Cell viability assay (NCI-H929 cells), CCK-8; assay type: cell-based; conditions: Homo sapiens, NCI-H929, 24 h, WST, 5% FBS
Method: Cell Viability Assay (NCI-H929 Cells)
NCI-H929 cells were obtained from American Type Culture Collection (ATCC). Cells were maintained in the recommended culture medium (RPMI 1640) with 10% FBS and 0.05 mM BME at 37° C. and an atmosphere of 5% CO2.
The effect of Compounds on cell viability was determined using Cell Counting Kit-8 (CCK-8) assay according to the manufacturer's instructions. 95 μL of NCI-H929 cell suspension (20000 cells/well) in culture medium were seeded into 96-well plates and cultured 4 hrs. Each tested compound was serially diluted in DMSO, then 5 μL of the compound or DMSO was diluted in 95 μL medium once more. At last, 5 μL of the compound dilution was added to the corresponding well of the cell plate. After the addition of the tested compound, the cells were incubated at 37° C. in an atmosphere of 5% CO2 for 24 hrs. At the end, 10 μL of CCK-8 solution was added to each well of the plate and incubated for 1-4 hours. The plates were read at 450 nm on the microplate reader (BioTek Synergy 1MF). The readings were normalized to the vehicle cells, and the IC50 was calculated by nonlinear regression analysis using GraphPad Prism 6 software.

[1] = biological target: T1, Mcl-1 protein (residues 171-323) (Homo sapiens, UniProt Q07820); assay: Inhibition of Mcl-1 by fluorescence polarization (FP) competitive binding assay; conditions: FAM-Bid tracer 2 nM, Mcl-1 20 nM, 30 min
T1 construct: Tag-free Mcl-1 protein (residues 171-323) was used in the FP assay
T1 sequence (Q07820 171-323): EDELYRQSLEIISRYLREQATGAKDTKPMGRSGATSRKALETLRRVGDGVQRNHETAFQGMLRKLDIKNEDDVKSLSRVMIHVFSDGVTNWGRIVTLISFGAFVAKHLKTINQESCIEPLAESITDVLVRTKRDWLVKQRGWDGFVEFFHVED
Method: Inhibition of Mcl-1 by Fluorescence Polarization (FP) Assay.
The method used a fluorescein labelled peptide (FAM-Bid) which binds to the Mcl-1 protein leading to an increased anisotropy measured in milli-polarization (mP) values using a plate reader.
A 10-points serial dilution of each compound was prepared in DMSO and 5 μL solution was transferred into flat bottomed, 96-well back plate (final DMSO concentration 5%). 120 μL of Buffer (PBS, 0.01% BGG (Sigma Cat. #SRE0011), 0.01% Triton X-100), containing the Fluorescein labelled peptide (Final concentration 2 nM) and Mcl-1 protein (final concentration 20 nM) was then added. […] 10-points dose response curves were plotted with GraphPad software using Sigmoidal Dose-Response Model and the IC50 values were determined by nonlinear regression fitting of the competition curves.

OPM-2 cells = assay: Cell viability assay (OPM-2 cells), CCK-8; assay type: cell-based; conditions: Homo sapiens, OPM-2, 24 h, WST, 5% FBS, read-out: OPM2 (WST, 5% FBS)
Method: Cell Viability Assay (OPM-2 Cells)
OPM-2 cells were obtained from Deutsche Sammlung von Mikroorganismen und Zellkulturen GmbH (DSMZ). […]
The effect of representative Compounds of the Disclosure on cell viability was determined using Cell Counting Kit-8 (CCK-8) assay (Shanghai Life iLab Bio Technology) according to the manufacturer's instructions. Each tested compound was serially diluted in culture medium, 100 μL of the compound dilution was added into 96-well plates. 100 μL of an OPM-2 cell suspension (20000 cells/well) in culture medium were seeded into the corresponding well of the plate and the cells were incubated at 37° C. in an atmosphere of 5% CO2 for 24 hours. In the next day, 20 μL of CCK-8 solution was added to each well of the plate and incubated for 4 hours.
The plates were read at 450 nm on the microplate spectrophotometer (SpectraMax plus 384, Molecular devices). The readings were normalized to the vehicle cells, and the IC50 was calculated by nonlinear regression analysis using GraphPad Prism 6 software.

| Compound | solubility (Kinetic solubility assay) | IC50 (NCI-H929 cells) | IC50 [1] | Solubility (pH 6.5, μg/mL) (Kinetic solubility assay) | IC50 (OPM-2 cells) |
| --- | --- | --- | --- | --- | --- |
| Cc1c2c(nn1C)CSCc1cc(n(C)n1)CSc1cc(c3ccccc3c1)OCCCc1c(C(=O)O)n(C)c3c-2c(Cl)ccc13 [AZD5991, (Z)-1^6-chloro-1^1,2^1,2^5,6^1-tetramethyl-1H,2^1H,6^1H-10-oxa-4,8-dithia-1(7,3)-indola-2(4,3),6(3,5)-dipyrazola-9(3,1)-naphthalenacyclotridecaphane-1^2-carboxylic acid, reference compound] | < 1 µg/mL | 47 nM |  |  |  |
| Cn1nc2c(Cl)c1CSc1cc(c3ccccc3c1)OCCCc1c(C(=O)O)n(C)c3c(c(Cl)ccc13)-c1c(nn3c1CCCC3)CSC2 [compound 24, (E)-1^6,6^4-dichloro-1^1,6^1-dimethyl-2^4,2^5,2^6,2^7-tetrahydro-1^1H,6^1H-10-oxa-4,8-dithia-2(3,2)-pyrazolo[1,5-a]pyridina-1(7,3)-indola-6(3,5)-pyrazola-9(3,1)-naphthalenacyclotridecaphane-1^2-carboxylic acid] | < 1 µg/mL | 1640 nM | 14.3 nM |  | 4860 nM |
| Cn1nc2cc1CSc1cc(c3cc(F)ccc3c1)OCCCc1c(C(=O)O)n(C)c3c(c(Cl)ccc13)-c1c(nn3c1COCC3)CSC2 [compound 16, (Z)-1^6-chloro-9^7-fluoro-1^1,6^1-dimethyl-2^6,2^7-dihydro-1^1H,2^4H,6^1H-10-oxa-4,8-dithia-2(3,2)-pyrazolo[5,1-c][1,4]oxazina-1(7,3)-indola-6(3,5)-pyrazola-9(3,1)-naphthalenacyclotridecaphane-1^2-carboxylic acid] | < 1 µg/mL | 360 nM | 20.7 nM |  | 2400 nM |
| Cc1c2c(nn1C)CN(S(C)(=O)=O)Cc1cc(n(C)n1)CSc1cc(c3ccccc3c1)OCCCc1c(C(=O)O)n(C)c3c-2c(Cl)ccc13 [compound 36, (Z)-1^6-chloro-1^1,2^1,2^5,6^1-tetramethyl-4-(methylsulfonyl)-1^1H,2^1H,6^1H-10-oxa-8-thia-4-aza-1(7,3)-indola-2(4,3),6(3,5)-dipyrazola-9(3,1)-naphthalenacyclotridecaphane-1^2-carboxylic acid] | 16 µg/mL (≈ 21.8 µM) | 71 nM | 19 nM |  | 317 nM |
| Cc1c2c(nn1C)CN(S(C)(=O)=O)Cc1cc(n(C)n1)CSc1cc(c3ccc(F)cc3c1)OCCCc1c(C(=O)O)n(C)c3c-2c(Cl)ccc13 [compound 45, (Z)-1^6-chloro-9^6-fluoro-1^1,2^1,2^5,6^1-tetramethyl-4-(methylsulfonyl)-1^1H,2^1H,6^1H-10-oxa-8-thia-4-aza-1(7,3)-indola-2(4,3),6(3,5)-dipyrazola-9(3,1)-naphthalenacyclotridecaphane-1^2-carboxylic acid] |  |  |  | >400 μg/mL |  |
| Cc1c2c(nn1C)CN(S(C)(=O)=O)Cc1cc(n(C)n1)CSc1cc(c3ccc(F)cc3c1)OCCCc1c(C(=O)O)n(C)c3c-2c(Cl)ccc13 [compound 47, (S)-(Z)-1^6-chloro-9^6-fluoro-1^1,2^1,2^5,6^1-tetramethyl-4-(methylsulfonyl)-1^1H,2^1H,6^1H-10-oxa-8-thia-4-aza-1(7,3)-indola-2(4,3),6(3,5)-dipyrazola-9(3,1)-naphthalenacyclotridecaphane-1^2-carboxylic acid] |  |  |  | <1 μg/mL |  |

The next lines start with results.

| solubility (Kinetic solubility assay) | IC50 (NCI-H929 cells) | IC50 [1] | Solubility (pH 6.5, μg/mL) (Kinetic solubility assay) | Compound | IC50 (OPM-2 cells) |
| --- | --- | --- | --- | --- | --- |
| < 1 µg/mL | 196 nM | 14.2 nM |  | Cc1cc2ccc1CSc1cc(c3ccc(F)cc3c1)OCCCc1c(C(=O)O)n(C)c3c(c(Cl)ccc13)-c1c(nn3c1CCC3)CSC2 [compound 30, 1^6-chloro-9^6-fluoro-1^1,6^3-dimethyl-2^5,2^6-dihydro-1^1H,2^4H-10-oxa-4,8-dithia-1(7,3)-indola-2(3,2)-pyrrolo[1,2-b]pyrazola-9(3,1)-naphthalena-6(1,4)-benzenacyclotridecaphane-1^2-carboxylic acid] | 255 nM |
| 3 µg/mL (≈ 4.19 µM) | 116 nM | 15.8 nM |  | Cn1nc2cc1CSc1cc(c3ccccc3c1)OCCCc1c(C(=O)O)n(C)c3c(c(Cl)ccc13)-c1c(nn3c1CSCC3)CSC2 [compound 21, (Z)-1^6-chloro-1^1,6^1-dimethyl-2^6,2^7-dihydro-1^1H,2^4H,6^1H-10-oxa-4,8-dithia-2(3,2)-pyrazolo[5,1-c][1,4]thiazina-1(7,3)-indola-6(3,5)-pyrazola-9(3,1)-naphthalenacyclotridecaphane-1^2-carboxylic acid] | 291 nM |
| 2 µg/mL (≈ 2.85 µM) | 960 nM | 11.3 nM |  | Cc1nc2sc1CSc1cc(c3ccccc3c1)OCCCc1c(C(=O)O)n(C)c3c(c(Cl)ccc13)-c1c(nn3c1CCC3)CSC2 [compound 5, 1^6-chloro-1^1,6^4-dimethyl-2^5,2^6-dihydro-1^1H,2^4H-10-oxa-4,8-dithia-6(2,5)-thiazola-1(7,3)-indola-2(3,2)-pyrrolo[1,2-b]pyrazola-9(3,1)-naphthalenacyclotridecaphane-1^2-carboxylic acid] | 973 nM |
| 1 µg/mL (≈ 1.46 µM) | 1130 nM | 150 nM |  | Cn1nc2cc1CSCc1nn3c(c1-c1c(Cl)ccc4c(c(C(=O)O)n(C)c14)CCCOc1cc(cc4ccccc14)SC2)CCC3 [compound 7, (Z)-1^6-chloro-1^1,6^1-dimethyl-2^5,2^6-dihydro-1^1H,2^4H,6^1H-10-oxa-4,8-dithia-1(7,3)-indola-2(3,2)-pyrrolo[1,2-b]pyrazola-6(5,3)-pyrazola-9(3,1)-naphthalenacyclotridecaphane-1^2-carboxylic acid] | 774 nM |
|  |  |  | 74 μg/mL | Cn1nc2cc1CSc1cc(c3ccc(F)cc3c1)OCCCc1c(C(=O)O)n(C)c3c(c(Cl)ccc13)-c1c(nn3c1COCC3)CSC2 (atropisomer, axis not shown) [compound 40, (R)-(Z)-1^6-chloro-9^6-fluoro-1^1,6^1-dimethyl-26,27-dihydro-1^1H,2^4H,6^1H-10-oxa-4,8-dithia-2(3,2)-pyrazolo[5,1-c][1,4]oxazina-1(7,3)-indola-6(3,5)-pyrazola-9(3,1)-naphthalenacyclotridecaphane-1^2-carboxylic acid] |  |
|  |  |  | 3 μg/mL | Cc1c2c(nn1C)CN(S(C)(=O)=O)Cc1cc(n(C)n1)CSc1cc(c3ccc(F)cc3c1)OCCCc1c(C(=O)O)n(C)c3c-2c(Cl)ccc13 [compound 48, (R)-(Z)-1^6-chloro-9^6-fluoro-1^1,2^1,2^5,6^1-tetramethyl-4-(methylsulfonyl)-1^1H,2^1H,6^1H-10-oxa-8-thia-4-aza-1(7,3)-indola-2(4,3),6(3,5)-dipyrazola-9(3,1)-naphthalenacyclotridecaphane-1^2-carboxylic acid] |  |
|  |  |  | <1 μg/mL | Cn1nc2cc1CSc1cc(c3ccc(F)cc3c1)OCCCc1c(C(=O)O)n(C)c3c(c(Cl)ccc13)-c1c(nn3c1COCC3)CSC2 (atropisomer, axis not shown) [compound 39, (S)-(Z)-1^6-chloro-9^6-fluoro-1^1,6^1-dimethyl-26,27-dihydro-1^1H,2^4H,6^1H-10-oxa-4,8-dithia-2(3,2)-pyrazolo[5,1-c][1,4]oxazina-1(7,3)-indola-6(3,5)-pyrazola-9(3,1)-naphthalenacyclotridecaphane-1^2-carboxylic acid] |  |
